Here are results for 8 compounds from patent publication US20260240878A1, “PTP1B/TC-PTP DUAL INHIBITORS AND PROTEIN DEGRADERS” (Purdue Research Foundation, priority 2023, published 2026).

Where a SMILES comes first, the peptide text is derived from it. [ ]: non-standard residue; d: D form. The star is where a group is joined. NHBn(4-(4-Me-thiazol-5-yl)) = Cc1ncsc1-c1ccc(CN*)cc1; F2Pmp = N[C@@H](Cc1ccc(C(F)(F)P(=O)(O)O)cc1)C(=O)O; Phenylacetyl(4-OH,3-OMe) = COc1cc(CC(=O)*)ccc1O; Benzoyl(3-Br,4-Me) = Cc1ccc(C(=O)*)cc1Br; Hyp = O=C(O)[C@@H]1C[C@@H](O)CN1; dHyp = O=C(O)[C@H]1C[C@H](O)CN1; dTle = CC(C)(C)[C@@H](N)C(=O)O; Tle = CC(C)(C)[C@H](N)C(=O)O; 12Ado = NCCCCCCCCCCCC(=O)O; Cbz = O=C(OCc1ccccc1)*; Aoc = NCCCCCCCC(=O)O; Ahx = NCCCCCC(=O)O

For test [1], the system named is compound 47-mediated PTP1B and TC-PTP degradation. Kind of test: Degradation mechanism verification in HEK293 cells (pretreatment with pathway blockers). The settings on record: pretreatment then 100 nM compound 47 for 4 hours. The class given is cell-based. The protocol: Cells were pre-treated with indicated concentration of MLN4924 (prevents ubiquitination), MG132 (blocks proteasome activity), lenalidomide (prevents CRBN binding) or (S,R,S)-AHPC-Me (prevents VHL binding) followed by 4 hours of treatment with compound 47 at 100 nM showing compound 47-mediated PTP1B/TC-PTP degradation depends on the ubiquitination-proteasome pathway. No degradation was observed when cells were treated with 100 nM cis-compound 47 (inactivated degrader) for 4 hours.
PROTAC-mediated protein degradation requires the obligatory formation of afunctional ternary complex of target protein-PROTAC-E3 ligase to enable target protein ubiquitination by the E3 ligase, followed by proteasomal degradation. The VHL E3 ligase dependency for compound 47 induced PTP1B and TC-PTP degradation was confirmed by preparing cis-isomer of compound 47 (cis-47) in which the VHL E3 ligand was replaced with (S,S,S)-AHPC-Me, an epimer of (S,R,S)-AHPC-Me with diminished affinity for VHL. […] Moreover, the addition of the VHL ligand (S,R,S)-AHPC-Me reduced the compound 47-mediated degradation of the two proteins (FIG. 6A). In contrast, pretreatment of the cell with lenalidomide, a ligand for cereblon (another E3 ligase commonly employed for PROTAC development), had no effect on compound 47-mediated PTP1B and TC-PTP degradation (FIG. 6A). […] The compound 47 mediated PTP1B and TC-PTP degradation and proteasome dependency were also verified by immunofluorescent imaging (FIGS. 6B and 6C).

In a further test the test system is pSTAT1. The test is described as follows: STAT1 phosphorylation in IFN-γ stimulated HEK293 cells (western blot). Type of test: cell-based. The settings on record: Homo sapiens; HEK293 cells, 16 hours, 20 ng/ml IFN-γ; read-out: EC50 of pSTAT1 activation. The protocol:
Wild-type HEK293 cells were treated with compound 47 or ABBV-CLS-484 for 16 hours, and stimulated with 20 ng/ml IFN-γ to induce JAK-STAT signaling pathway activation.
Abbvie and Calico developed a potent PTP1B/TC-PTP inhibitor ABBV-CLS-484 (disclosed in International PCT application WO2019246513), and it is currently being evaluated as a treatment for locally advanced or metastatic tumors (NCT04777994).

In test [2] the target is T1, PTP1B (Homo sapiens, UniProt P18031).
T1 sequence (P18031 1-435): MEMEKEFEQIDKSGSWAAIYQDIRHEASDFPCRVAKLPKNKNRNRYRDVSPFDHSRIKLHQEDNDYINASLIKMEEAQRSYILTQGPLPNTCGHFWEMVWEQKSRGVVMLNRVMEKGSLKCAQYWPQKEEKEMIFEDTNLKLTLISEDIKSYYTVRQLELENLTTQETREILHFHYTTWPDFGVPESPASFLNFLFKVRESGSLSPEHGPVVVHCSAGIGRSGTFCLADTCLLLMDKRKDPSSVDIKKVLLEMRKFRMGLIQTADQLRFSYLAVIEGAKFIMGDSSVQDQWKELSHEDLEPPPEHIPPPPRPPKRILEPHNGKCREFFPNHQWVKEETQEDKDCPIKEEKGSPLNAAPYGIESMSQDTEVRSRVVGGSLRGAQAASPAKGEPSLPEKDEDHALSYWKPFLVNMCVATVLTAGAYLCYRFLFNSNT
Kind of test: PTP activity assay with pNPP substrate (IC50, Ki, mode of inhibition). Type of test: biochemical. To be noted: pNPP 2 mM, pH 7.0, 25° C.; read-out: IC50, nM PTP1B. The gist of the method: (§1)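 Hydrolysis of pNPP measured spectrophotometrically in pH 7.0 DMG buffer (EDTA, NaCl, DTT, BSA) at 25 °C, 0.4 nM enzyme. IC50 at 2 mM pNPP (Km) over an inhibitor titration; mode of inhibition and Ki from rates across varied pNPP and inhibitor levels, fitted to enzyme kinetic models.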

The target of test [3] is T2, TC-PTP (Homo sapiens, UniProt P17706).
T2 sequence (P17706 1-415): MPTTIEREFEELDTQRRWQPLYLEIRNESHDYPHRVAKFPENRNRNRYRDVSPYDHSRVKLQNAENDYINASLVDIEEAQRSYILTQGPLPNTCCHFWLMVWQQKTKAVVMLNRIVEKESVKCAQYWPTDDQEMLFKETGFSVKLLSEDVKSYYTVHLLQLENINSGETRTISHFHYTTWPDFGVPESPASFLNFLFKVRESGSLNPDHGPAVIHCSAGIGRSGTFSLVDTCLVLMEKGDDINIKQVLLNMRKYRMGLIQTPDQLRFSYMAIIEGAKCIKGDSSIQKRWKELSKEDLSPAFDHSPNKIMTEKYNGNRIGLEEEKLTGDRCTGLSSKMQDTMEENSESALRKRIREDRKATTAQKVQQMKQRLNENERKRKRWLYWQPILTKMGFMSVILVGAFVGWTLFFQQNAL
The test is described as above. The class given is biochemical. The settings on record: pNPP 2 mM, pH 7.0, 25° C.; read-out: IC50, nM TC-PTP. Summed up: as §1

Test [4] addresses T1, PTP1B. The test is described as follows: Degradation assay in HEK293 cells (immunoblotting). The settings on record: 0.2 μM degrader, 16 hours. Type of test: cell-based. On the set-up: endogenous in cells; host or cells: HEK293. On the technique in general: In western blotting, separated proteins are transferred to a membrane and probed.
Test [5] deals with T2, TC-PTP. The test is described as follows: Degradation assay in HEK293 cells (immunoblotting). Type of test: cell-based. On the set-up: endogenous in cells; host or cells: HEK293. The settings on record: 0.2 μM degrader, 16 hours, read-out: % Protein Degradation TC-PTP.
The target in test [6] is T1, PTP1B. Kind of test: Degradation assay in HEK293 cells (immunoblotting). The class given is cell-based. On the set-up: Degradation assay was conducted in HEK293 cells with 1 μM degrader and 24 hours incubation; endogenous in cells; host or cells: HEK293. To be noted: 1 μM degrader, 24 hours. The protocol: (§2) HEK293. MIAPaCa-2, HepG2, U2OS, H116, MEF, B16F10, and MC38 cells, were grown in DMEM, while Jurkat and H358 cells were grown in RPMI 1640 supplemented with 10% fetal bovine serum, penicillin (50 units/mL), and streptomycin (50 μg/mL) in a 37° C. incubator containing 5% CO2. 20 ng/ml human (Biolegend #713906) or mouse (Biolegend #714006) Interferon-γ were used for JAK/STAT pathway stimulation.
(§3) Tissues or cultured cells were lysed with ice-cold lysis buffer (50 mM Tris (pH 8.0, 150 mM NaCl, 10% Glycerol, 1% Triton-X-100) supplied with phosphatase inhibitor (Bimake) and protease inhibitor mixture (Roche Applied Science). Equal amounts of protein were resolved by SDS-PAGE, transferred to nitrocellulose membrane, and subjected to immunoblotting. Antibodies used in this study include anti-following proteins: pSTAT1^Tyr701 (Cell Signaling Technology #9167, 1:3000), GAPDH (Cell Signaling Technology #97166, 1:5000), pJAK1^Tyr1034/1035 (Cell Signaling Technology #74129, 1:1000), pJAK2^Tyr1007/1008 (Cell Signaling Technology #3776, 1:1000), TC-PTP (Abcam #ab180764, 1:3000). PTP1B (Abcam #ab244207, 1:1500).
(§4) Degradation assay was conducted in HEK293 cells with 1 μM degrader and 24 hours incubation.
(§5) The degradation assay was conducted in HEK293 cells with 0.2 μM degrader and 16 hours incubation.

Test [7] concerns the target T2, TC-PTP. The test is described as follows: Degradation assay in HEK293 cells (immunoblotting). The class given is cell-based. On the set-up: Degradation assay was conducted in HEK293 cells with 1 μM degrader and 24 hours incubation; endogenous in cells; host or cells: HEK293. To be noted: 1 μM degrader, 24 hours, read-out: % Protein Degradation TC-PTP. The protocol:
as §2, §3, §4, §5

On to `Cc1ncsc1-c1ccc([C@H](C)NC(=O)[C@@H]2C[C@@H](O)CN2C(=O)[C@@H](N)C(C)(C)C)cc1` [(S,R,S)-AHPC-Me], for which the “effect of pretreatment on compound 47-mediated PTP1B and TC-PTP degradation” value in test [1] is reported as “reduced”.
The EC50 is the concentration at which the effect is half-maximal. As to `CC(C)CCN[C@@H]1CCc2cc(O)c(N3CC(=O)NS3(=O)=O)c(F)c2C1` [ABBV-CLS-484, reference compound], in the test with pSTAT1, the EC50 was found to be 79.7 nM.
The IC50 is the concentration that gives 50% inhibition. On to `COc1cc(CC(=O)N[C@@H](Cc2ccccc2)C(=O)N[C@@H](Cc2ccc(C(F)(F)P(=O)(O)O)cc2)C(=O)N[C@@H](CCCCNC(=O)c2ccc(C)c(Br)c2)C(=O)NCCCCCC(=O)N[C@H](C(=O)N2C[C@H](O)C[C@H]2C(=O)NCc2ccc(-c3scnc3C)cc2)C(C)(C)C)ccc1O` [Compound 8, ((4-((S)-3-(((S)-6-(3-bromo-4-methylbenzamido)-1-((6-(((S)-1-((2S,4R)-4-hydroxy-2-((4-(4-methylthiazol-5-yl)benzyl)carbamoyl)pyrrolidin-1-yl)-3,3-dimethyl-1-oxobutan-2-yl)amino)-6-oxohexyl)amino)-1-oxohexan-2-yl)amino)-2-((S)-2-(2-(4-hydroxy-3-methoxyphenyl)acetamido)-3-phenylpropanamido)-3-oxopropyl)phenyl)difluoromethyl)phosphonic Acid] ({Phenylacetyl(4-OH,3-OMe)}-F[F2Pmp]K(Benzoyl(3-Br,4-Me))[Ahx][Tle][Hyp]-{NHBn(4-(4-Me-thiazol-5-yl))}), for which the IC50 on PTP1B [2] came out at 16.7 ± 0.9 nM; at TC-PTP [3], 12.8 ± 3.7 nM. Moreover, the “% Protein Degradation PTP1B” value on PTP1B [4] turned out to be 61%; at PTP1B [6], 81%. For the same compound, the percent TC-PTP degradation at 0.2 µM on TC-PTP [5] was 58%. The percent TC-PTP degradation at 1 µM on TC-PTP [7] was determined as 83%.
As to `COc1cc(CC(=O)N[C@@H](Cc2ccccc2)C(=O)N[C@@H](Cc2ccc(C(F)(F)P(=O)(O)O)cc2)C(=O)N[C@@H](CCCCNC(=O)c2ccc(C)c(Br)c2)C(=O)NCCCCCCCCCCCC(=O)N[C@H](C(=O)N2C[C@H](O)C[C@H]2C(=O)NCc2ccc(-c3scnc3C)cc2)C(C)(C)C)ccc1O` [Compound 18, ((4-((S)-3-(((S)-6-(3-bromo-4-methylbenzamido)-1-((12-(((S)-1-((2S,4R)-4-hydroxy-2-((4-(4-methylthiazol-5-yl)benzyl)carbamoyl)pyrrolidin-1-yl)-3,3-dimethyl-1-oxobutan-2-yl)amino)-12-oxododecyl)amino)-1-oxohexan-2-yl)amino)-2-((S)-2-(2-(4-hydroxy-3-methoxyphenyl)acetamido)-3-phenylpropanamido)-3-oxopropyl)phenyl)difluoromethyl)phosphonic Acid] ({Phenylacetyl(4-OH,3-OMe)}-F[F2Pmp]K(Benzoyl(3-Br,4-Me))[12Ado][Tle][Hyp]-{NHBn(4-(4-Me-thiazol-5-yl))}), the IC50 at PTP1B [2] came out at 22.3 ± 1.1 nM; on TC-PTP [3], 8.9 ± 0.6 nM. Moreover, the “% Protein Degradation PTP1B” value on PTP1B [6] stood at 29%. For the same compound, the percent TC-PTP degradation at 1 µM at TC-PTP [7] worked out at 30%.
For `COc1cc(CC(=O)N[C@@H](Cc2ccccc2)C(=O)N[C@@H](Cc2ccc(C(F)(F)P(=O)(O)O)cc2)C(=O)N[C@@H](CCCCNC(=O)c2ccc(C)c(Br)c2)C(=O)NCCCCCCCC(=O)N[C@@H](C(=O)N2C[C@@H](O)C[C@@H]2C(=O)NCc2ccc(-c3scnc3C)cc2)C(C)(C)C)ccc1O` [Compound 83, ((4-((S)-3-(((S)-6-(3-bromo-4-methylbenzamido)-1-((8-(((R)-1-((2R,4S)-4-hydroxy-2-((4-(4-methylthiazol-5-yl)benzyl)carbamoyl)pyrrolidin-1-yl)-3,3-dimethyl-1-oxobutan-2-yl)amino)-8-oxooctyl)amino)-1-oxohexan-2-yl)amino)-2-((S)-2-(2-(4-hydroxy-3-methoxyphenyl)acetamido)-3-phenylpropanamido)-3-oxopropyl)phenyl)difluoromethyl)phosphonic Acid] ({Phenylacetyl(4-OH,3-OMe)}-F[F2Pmp]K(Benzoyl(3-Br,4-Me))[Aoc][dTle][dHyp]-{NHBn(4-(4-Me-thiazol-5-yl))}), in that order: 19 ± 1.9 nM, 10.6 ± 0.3 nM, 58% and 66%.
With `CC(C)C[C@@H](C=O)NC(=O)[C@H](CC(C)C)NC(=O)[C@H](CC(C)C)NC(=O)OCc1ccccc1` [MG-132] (Cbz-Leu-Leu-Leu-aldehyde), the “effect of pretreatment on compound 47-mediated PTP1B and TC-PTP degradation” value in test [1] was “markedly reduced”.
Still for that read-out and setting: to `NS(=O)(=O)OC[C@@H]1C[C@@H](n2ccc3c(N[C@H]4CCc5ccccc54)ncnc32)C[C@@H]1O` [MLN-4924] belongs “markedly reduced”.
On the same count and under the same terms, the entry for `Nc1cccc2c1CN(C1CCC(=O)NC1=O)C2=O` (stereo not shown) [lenalidomide] is “had no effect”.
